# Assay results published in patent publication US9443060B2, “Method and system to provide personalized pharmaceutical compositions and dosages” (Volant Holdings GMBH, priority 2009, dated 2016).
# “Also recorded” adds a separate entry of the source.
# How the values were obtained:
# [1] = system: hepatic glucose uptake (HGU); assay: Glucose supply and insulin demand model: effect on hepatic glucose uptake; type: in vivo, human
# Description: (§1) Therapeutic targets of the glucose supply (CE, 1+2; HGU, 3; GNG, 4; IR, 5) and insulin demand (PGU, 6; PIE, 7) model are presented in FIG. 1. To identify quantitative differences between antidiabetic agents on CE, HGU, GNG, IR, PGU, and PIE, multidatabase searches (Cochrane Central Register of Controlled Trials and Cochrane Register of Systematic Reviews, Embase, OVID Healthstar, OVID Journals, and PubMed) were conducted cross-referencing title and keywords for all selected antidiabetic therapies and their respective targets.
# (§2) Alpha-glucosidase, biguanide, and thiazolidinedione (TZD) studies with long-term, pre-post design at maximal therapeutic doses were identified to simulate chronic administration. To maintain consistency with cardiovascular trials and accommodate known influences of hyperglycemia and hyperinsulinemia on the respective targets,^13-16 studies including patients with HbA1c in the range of 6-8% and body mass index (BMI)≧30 kg/m^2 were preferentially selected. In the event multiple studies were available to identify the effect of an agent on a therapeutic target, the mean percent change was used. Conversely, if there was evidence that an agent would elicit a response on a given target but no mathematical representation of the difference was provided, conservative estimates consistent with the scale of other agents and the degree of glucose regulation were instituted to best represent the expected effect. Individual agents were then characterized for the 24 h percent change from baseline for CE, HGU, GNG, IR, PGU, and PIE. Carbohydrate exposure was determined as the combined effect of caloric intake and intestinal carbohydrate absorption. Hepatic glucose uptake was defined as the reported value obtained immediately following oral glucose loading. Because GNG is known to be enhanced in the fasting state and persistent throughout the prandial phase,^17,18 effect was determined during the fasting state and considered equivalent throughout the prandial phase. For studies evaluating fasting glucose and insulin concentrations, an index of IR was determined by homeostasis model assessment of insulin resistance (HOM-AIR) using the following formula: Insulin (mU/liter)×Glucose (mmol)/22.5.^19 To account for known differences in secretory and uptake dynamics during the fasting and prandial phases, studies identifying the impact of therapies during the fasting state (or simulated hyperinsulinemic euglycemic clamp) and prandial phase (or oral glucose load insulin clamp) were specifically identified for changes in PGU (glucose infusion rate) and PIE (insulin concentrations) according to Equation (1): […]
# (§3) For sulfonylurea and insulin-based therapies, insulin concentration time profiles were obtained and superimposed on the baseline 24 h insulin concentration time profile of T2D patients (FIG. 2) to calculate the increase in PIE (trapezoidal rule).^20 Calculated increases in incremental and cumulative insulin exposure were correlated to known insulin dose-response effects on HGU, GNG, and PGU (FIG. 3),^18,21 according to the equation y=mx+b. Twenty-four-hour increases in HGU, PGU, and PIE and decreases in GNG were compared to baseline values and percent change calculated.
# (§4) With alpha-glucosidase, biguanide, TZD, secretagogue, and insulin therapies characterized for their respective impacts on CE, HGU, GNG, IR, PIE, and PGU, identification of their effect on the glucose supply (decrease in CE, increase in HGU, decrease in GNG, decrease in IR) and insulin demand (increase in PIE, increase in PGU) dynamic was assessed according to Equation (2), which provides the SD ratio according to the invention: […]
# [2] = system: peripheral glucose uptake (PGU); details: cited from earlier work
# [3] = system: intestinal glucose utilization; details: cited from earlier work
# [4] = system: brush border vesicles isolated from rabbit intestine; details: 5 mM metformin; cited from earlier work
# [5] = system: hepatic glucose uptake (HGU); details: Iozzo; metformin 2000 mg daily, rosiglitazone 8 mg daily; 26 weeks; PET [18F]FDG, insulin clamp; cited from earlier work
# [6] = system: peripheral glucose uptake (PGU); assay: Glucose supply and insulin demand model: effect on peripheral glucose uptake; type: in vivo, human
# Description: as §1, §2, §3, §4
# metabolic syndrome = assay: FS index / neural net model of cardiovascular risk in metabolic syndrome patient populations; type: in vivo, human
# Description: The FS index of MS comprises the following parameters: Fasting Blood Glucose, Fasting Insulin, HBA1c, BMI, AST, Triglycerides, Glucose Supply-Demand (S/D) index, and in certain cases, Proinsulin. Each parameter was mathematically arranged to increase as MS worsened, and weighted approximately equally in the prediction of MS progression and risk for CV events. […] FS index values were calculated from serial laboratory and clinical data over timeframes ranging between 2 and 10 years.
# Neural Net Models and Data Display Methods. […] Unless otherwise stated, standard deviations (z-score) vs. time are presented in the individual and mean population graphics.
# For purposes of analysis, clinical and laboratory parameters were converted into modified z-scores as follows: • A mean normal value (described as “mean” in the following) was selected based on review of literature and various published laboratory compendia. The Standard Deviation (SD) of each parameter was set to one half of the normal range. The modified z-score is calculated as follows: z=(Patient value−“mean”)/SD • On the graphs, the z-score is reported as the number of SD.
# The FS index considered the following: Fasting Blood Glucose, Fasting Insulin, HBA1c, BMI, AST, Triglycerides, Glucose Supply-Demand (S/D) index, and in some cases Proinsulin. […] Each of these parameters was mathematically arranged to increase as Metabolic Syndrome worsened, and weighted approximately equally in the prediction of Metabolic Syndrome progression and risk for CV events.
# The FS index was then applied to well-studied patient populations using a neural net model.
# [formula] Where FBG is Fasting Blood Glucose in mg/dl and normal value is 100 mg/dl TG is Triglycerides in mg/dl normal value is <150 HBA1c is hemoglobin A1c in %, normal value is <6% BMI is body mass index as kg/m2 where a normal value is 20 and obese begins above 25 AST is Aspartate Transferase also called SGOT in IU/liter and a normal value is 5-50 FB insulin is fasting Blood insulin concentration in nmol/liter, a normal value is 4.0
# [7] = system: intestinal carbohydrate absorption; details: Jackson; metformin, 75 g oral glucose load with labeled glucose, 3 h; cited from earlier work
# [8] = Metformin 2000 mg, Glyburide 10 mg, Pioglitazone 45 mg, Insulin Glargine 0.5 U/kg daily, pH encapsulated glucose 3.0 grams/day
compound,measurement,setting,value
CN(C)C(=N)N=C(N)N [Metformin],Score HGU,[1]; [8],0.40
same,HGU uptake,"[1]; adjustment factor = increase in hepatic glucose uptake at the therapeutic dose of Table 1, T2D",0.40
same,increase in glucose infusion rate,"[2]; Inzucchi, metformin 2000 mg daily, 12 weeks, euglycemic hyperinsulinemic clamp at 100 mg/dl",13%
same,glucose infusion rate,"[2]; Inzucchi, metformin 2000 mg daily, 12 weeks, euglycemic hyperinsulinemic clamp, before 240",272 mg/m^−2/min^−1
same,rate of plasma glucose turnover,"[2]; Stumvoll, metformin, before 2.8±0.2",2.0±0.2 mg/kg^−1/min^−1
same,systemic glucose disposal,"[2]; Stumvoll, metformin",did not change
same,glucose rate of disappearance,"[2]; Tiikkainen, metformin 2000 mg daily, 16 weeks, clamp at 144 mg/dl, before 0.09±0.01, unchanged",0.10±0.01 mg/kg^−1/min^−1
same,increase in glucose utilization in mucosa from different regions of the intestine,"[3]; Bailey, metformin 250 mg/kg^−1, normal rats, intravenous glucose tolerance test",30-60%
same,increase in glucose utilization in the jejunum,"[3]; Penicaud, metformin 350 mg/kg^−1/day^−1 for 8 days, obese fa/fa rats",39%
same,glucose uptake,[4],nominal decrease in glucose uptake
same,"increase in HGU, placebo-subtracted value",[5],+0.008±0.004 μmol/kg^−1/min^−1
same,Score PGU,[6]; [8],0.14
same,PGU,"[6]; adjustment factor = increase in peripheral glucose uptake at the therapeutic dose of Table 1, T2D",0.14
same,FS index response to treatment,"metabolic syndrome; normal 20-50, 61 T2D on metformin, 100 RYGB, 18 Brake, 33 exenatide, 12 sitagliptin patients",Their FS index rises; also recorded: flat or slowly rising
same,"other parameters of metabolic syndrome (BMI/weight, HBSD, lipids, NAFLD, blood pressure, insulin)",metabolic syndrome; same patient populations as FS index,"their HBSD rises, they gain weight"
same,absorption of glucose,[7],"slightly delayed, but ultimately unaltered"
